# Target: T1, human A2a receptor (Homo sapiens, UniProt P29274)
# T1 construct: purchased Perkin-Elmer RBHA2AM400UA; host or cells: HEK293 cells, used as a membrane preparation
# Experiment: A2a receptor competition binding assay (Scintillation Proximity)
# Conditions: membranes from HEK293 cells expressing human A2a receptor; 0.5 nM tritiated ligand; Cheng-Prusoff; read-out: A2a Ki
# Method: Binding affinities of compounds of the invention for the human A2a receptor were determined in a competition binding assay using Scintillation Proximity technology. Thus, 0.3 μg of membranes from HEK293 cells expressing the human A2a receptor were incubated with a compound of the invention at concentrations ranging from 3000 nM to 0.15 nM in a reaction mixture containing also 0.5 nM of a tritiated form of 5-amino-7-[2-phenethyl]-2-(furan-2-yl)-7H-pyrazolo[4,3-e][1,2,4]triazolo[1,5-c]pyrimidine (the tritiated compound) and 100 μg of wheat germ agglutin-coated yttrium silicate SPA beads for one hour at room temperature with agitation. The beads were then allowed to settle to the bottom of the wells for 1 hr, after which the membrane-associated radioactivity was determined by scintillation counting in a TopCount microplate reader. Ki values were determined using the Cheng-Prusoff equation.
# Summary of Materials and Methods Used in A2a Activity Determination:
# HEK293 cells expressing the human, rat, dog or monkey adenosine 2a receptor (Purchased from Perkin-Elmer #RBHA2AM400UA).
# The Tritiated compound was prepared according to published methods.
# Wheat germ agglutinin-coated yttrium silicate SPA beads (GE Healthcare #RPNQ0023). Dilute to 25 mg/ml in assay buffer.
# Assay Buffer was prepared using Dulbecco's calcium and magnesium free phosphate buffered saline+10 mMMgCl2
# Adenosine deaminase from calf intestine, 10 mg/2 ml (Roche #10 102 105 001).
# A2a antagonist standard (9-chloro-1-(2-furanyl)-[1,2,4]triazolo1,5-c]quinazolin-5-amine from Tocris Bioscience)
# Make eight 1:3 serial dilutions in 100% DMSO from a 3 mM compound stock
# Transfer 50 nl of compound into a 384-well OptiPlate (Perkin Elmer).
# Typically, final concentrations of compound used in the assay ranged from 3000 nM to 0.152 nM.
# Dilute a solution of the Tritiated compound to 1.25 nM in assay buffer. This is a 2.5× solution. The final concentration in the assay is 0.5 nM. Calculate the concentration by counting two 5 μl aliquots.
# Use 0.25 ug of membrane/well. Dilute membranes to 9.7 μg/ml in assay buffer. Treat with 20 ug/ml adenosine deaminase (ADA) for 15 minutes at room temperature to degrade endogenous adenosine.
# Use 100 μg/well wheat germ agglutinin-coated yttrium silicate SPA beads.
# Mix ADA-treated membranes and SPA beads together for 30 min prior to assay.
# To the Perkin-Elmer Optiplate-384 containing the compound titration add 20 μl of 2.5× solution of the Tritiated compound and 30 μl of the membrane-bead mixture. Incubate for one hour at room temperature with agitation.
# Include total binding (assay buffer+1% DMSO) and non-specific binding (CGS15943, 1 μM) wells.
# Allow the beads to settle for one hour.
# A curve fitting program (i.e., Prism, Activity Base, Chemcart) is used to determine the EC50. The Ki value is calculated using the Cheng-Prusoff equation. Ki=EC50/(1+(radioligand concentration/Kd))
# T1 sequence (P29274 whole entry): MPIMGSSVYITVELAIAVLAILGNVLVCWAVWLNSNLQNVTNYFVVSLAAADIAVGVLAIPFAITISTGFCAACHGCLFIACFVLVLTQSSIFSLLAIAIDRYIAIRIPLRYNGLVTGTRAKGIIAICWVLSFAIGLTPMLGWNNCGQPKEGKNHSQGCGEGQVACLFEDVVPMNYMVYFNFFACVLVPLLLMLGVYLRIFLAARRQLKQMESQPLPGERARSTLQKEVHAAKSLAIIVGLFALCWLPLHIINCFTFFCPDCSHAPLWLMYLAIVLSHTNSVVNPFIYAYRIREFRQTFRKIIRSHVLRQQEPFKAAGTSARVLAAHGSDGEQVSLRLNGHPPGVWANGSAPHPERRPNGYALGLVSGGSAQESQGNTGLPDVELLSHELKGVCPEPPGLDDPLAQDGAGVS
row,SMILES,Ki [nM]
1,"COc1cccc2c1nc(N)n1cc(Cc3cccnc3F)nc21 [Ex-42, 2-((2-fluoropyridin-3-yl)methyl)-7-methoxyimidazo[1,2-c]quinazolin-5-amine]",2.8
2,"COc1cccc2c1nc(N)n1cc(Cc3cccnc3N3CCOCC3)nc21 [Ex-43, 7-methoxy-2-((2-morpholinopyridin-3-yl)methyl)imidazo[1,2-c]quinazolin-5-amine]",5.2
3,"COc1cccc2c1nc(N)n1cc(Cc3ccc(N4CCN(C(C)=O)CC4)cc3)nc21 [Ex-44, 1-(4-(4-((5-amino-7-methoxyimidazo[1,2-c]quinazolin-2-yl)methyl)phenyl)piperazin-1-yl)ethan-1-one]",14
4,"COc1cccc2c1nc(N)n1cc(Cc3ccc(N4CCN(C(C)=O)CC4)nc3)nc21 [Ex-45, 1-(4-(5-((5-amino-7-methoxyimidazo[1,2-c]quinazolin-2-yl)methyl)pyridin-2-yl)piperazin-1-yl)ethan-1-one]",4.6
5,"COc1cccc2c1nc(N)n1cc(Cc3ccnc(N4CCN(C(C)=O)CC4)c3)nc21 [Ex-46, 1-(4-(4-((5-amino-7-methoxyimidazo[1,2-c]quinazolin-2-yl)methyl)pyridin-2-yl)piperazin-1-yl)ethan-1-one]",7.4
6,"CC(=O)N1CCc2cc(Cc3cn4c(N)nc5c(F)cccc5c4n3)ccc2C1 [Ex-47, 1-(6-((5-amino-7-fluoroimidazo[1,2-c]quinazolin-2-yl)methyl)-3,4-dihydroisoquinolin-2(1H)-yl)ethan-1-one]",5.9
7,"CC(=O)N1CCc2ccc(Cc3cn4c(N)nc5c(F)cccc5c4n3)cc2C1 [Ex-48, 1-(7-((5-amino-7-fluoroimidazo[1,2-c]quinazolin-2-yl)methyl)-3,4-dihydroisoquinolin-2(1H)-yl)ethan-1-one]",3
8,"COc1cccc2c1nc(N)n1cc(Cc3cccnc3N3CCCC3)nc21 [Ex-49, 7-methoxy-2-((2-(pyrrolidin-1-yl)pyridin-3-yl)methyl)imidazo[1,2-c]quinazolin-5-amine]",6.2
9,"COc1cccc2c1nc(N)n1cc(Cc3cccnc3N3CCCCC3)nc21 [Ex-50, 7-methoxy-2-((2-(piperidin-1-yl)pyridin-3-yl)methyl)imidazo[1,2-c]quinazolin-5-amine]",3.7
10,"COc1cccc2c1nc(N)n1cc(Cc3cccnc3N3CCN(C)CC3)nc21 [Ex-51, 7-methoxy-2-((2-(4-methylpiperazin-1-yl)pyridin-3-yl)methyl)imidazo[1,2-c]quinazolin-5-amine]",23.9
11,"Nc1nc2c(F)cccc2c2nc(Cc3cccc4c3CCNC4)cn12 [Ex-52, 7-fluoro-2-((1,2,3,4-tetrahydroisoquinolin-5-yl)methyl)imidazo-[1,2-c]quinazolin-5-amine]",11
12,"CC(=O)N1CCc2c(Cc3cn4c(N)nc5c(F)cccc5c4n3)cccc2C1 [Ex-53, 1-(5-((5-amino-7-fluoroimidazo[1,2-c]quinazolin-2-yl)methyl)-3,4-dihydroisoquinolin-2(1H)-yl)ethan-1-one]",3.7
13,"N#Cc1ccc(N2CCc3c(Cc4cn5c(N)nc6c(F)cccc6c5n4)cccc3C2)nc1 [Ex-54, 6-(5-((5-amino-7-fluoroimidazo[1,2-c]quinazolin-2-yl)methyl)-3,4-dihydroisoquinolin-2(1H)-yl)nicotinonitrile]",3.8
14,"N#Cc1cccc(CC(=O)N2CCc3c(Cc4cn5c(N)nc6c(F)cccc6c5n4)cccc3C2)c1 [Ex-55, 3-(2-(5-((5-amino-7-fluoroimidazo[1,2-c]quinazolin-2-yl)methyl)-3,4-dihydroisoquinolin-2(1H)-yl)-2-oxoethyl)benzonitrile]",5.1
15,"CCCN1CCc2c(Cc3cn4c(N)nc5c(F)cccc5c4n3)cccc2C1 [Ex-56, 7-fluoro-2-((2-propyl-1,2,3,4-tetrahydroisoquinolin-5-yl)melhyl)imidazo-[1,2-c]quinazolin-5-amine]",16
16,"Nc1nc2c(F)cccc2c2nc(Cc3cccc4c3CCN(CCc3ccccn3)C4)cn12 [Ex-57, 7-fluoro-2-((2-(2-(pyridin-2-yl)ethyl)-1,2,3,4-tetrahydroisoquinolin-5-yl)methyl)imidazo[1,2-c]quinazolin-5-amine]",18
17,"Nc1nc2c(F)cccc2c2nc(Cc3cccc4c3CCN(Cc3ccccn3)C4)cn12 [Ex-58, 7-fluoro-2-((2-(pyridin-2-ylmethyl)-1,2,3,4-tetrahydroisoquinolin-5-yl)methyl)imidazo[1,2-c]quinazolin-5-amine]",9.9
18,"COc1cccc2c1nc(N)n1cc(Cc3cccc4c3CCN(C(=O)Cc3ccc(F)c(F)c3)C4)nc21 [Ex-59, 1-(5-((5-amino-7-methoxyimidazo[1,2-c]quinazolin-2-yl)methyl)-3,4-dihydroisoquinolin-2(1H)-yl)-2-(3,4-difluorophenyl)ethan-1-one]",2.9
19,"COc1cccc2c1nc(N)n1cc(Cc3cccc4c3CCN(C(=O)CCC(F)(F)F)C4)nc21 [Ex-60, 1-(5-((5-amino-7-methoxyimidazo[1,2-c]quinazolin-2-yl)methyl)-3,4-dihydroisoquinolin-2(1H)-yl)-4,4,4-trifluorobutan-1-one]",2
20,"Cn1cc(-c2ccc(F)c3nc(N)n4cc(Cc5ccccc5)nc4c23)ccc1=O [Ex-61, 5-(5-amino-2-benzyl-7-fluoroimidazo[1,2-c]quinazolin-10-yl)-1-methylpyridin-2(1H)-one]",27
21,"COc1cccc2c1nc(N)n1cc(Cc3cccnc3N3CCC(c4ccccc4)CC3)nc21 [Ex-62, 7-methoxy-2-((2-(4-phenylpiperidin-1-yl)pyridin-3-yl)methyl)imidazo[1,2-c]quinazolin-5-amine]",2.2
22,"Nc1nc2c(F)cccc2c2nc(Cc3ccnc(N4CCN(c5nc6ccccc6o5)CC4)c3)cn12 [Ex-63, 2-((2-(4-(benzo[d]oxazol-2-yl)piperazin-1-yl)pyridin-4-yl)methyl)-7-fluoroimidazo[1,2-c]quinazolin-5-amine]",102
23,"Nc1nc2c(F)cccc2c2nc(Cc3ccc4c(c3)CN(Cc3ccccc3)C4)cn12 [Ex-65, 2-((2-benzylisoindolin-5-yl)methyl)-7-fluoroimidazo[1,2-c]quinazolin-5-amine]",5.1
24,"COCCOc1ccc(N2CCN(Cc3ccccc3Cc3cn4c(N)nc5c(OC)cccc5c4n3)CC2)cc1 [Ex-66, 7-methoxy-2-(2-((4-(4-(2-methoxyethoxy)phenyl)piperazin-1-yl)methyl)benzyl)imidazo[1,2-c]quinazolin-5-amine]",11.5
25,COc1cccc2c1nc(N)n1cc(Cc3ccccc3CN3CCN(c4ccccc4)CC3)nc21 [Ex-67],2.2
26,"Nc1nc2c(F)cccc2c2nc(Cc3ccccc3CN3CCN(c4ncccn4)CC3)cn12 [Ex-71, 7-fluoro-2-(2-((4-(pyrimidin-2-yl)piperazin-l-yl)methyl)benzyl) imidazo[1,2-c]quinazolin-5-amine]",5.3
27,Nc1nc2c(F)cccc2c2nc(Cc3ccccc3CN3CCC(N4CCOCC4)CC3)cn12 [Ex-73],4.2
28,"Nc1nc2c(F)cccc2c2nc(Cc3cccc(-c4cccnc4)c3)cn12 [Ex-74, 7-fluoro-2-(3-(pyridin-3-yl)benzyl)imidazo[1,2-c]quinazolin-5-amine]",4.5
29,"CC(c1ccc(-c2cccc(Cc3cn4c(N)nc5c(F)cccc5c4n3)c2)cc1)N1CCOCC1 (stereo not drawn) [Ex-75, 7-fluoro-2-((4′-(l-morpholinoethyl)-[1,1′-biphenyl]-3-yl)methyl)imidazo[1,2-c]quinazolin-5-amine]",6

# — US11498923B2 (Merck Sharp & Dohme Corp., priority 2017, dated 2022)
